From patent US9181182B2, “S1P receptors modulators” (Akaal Pharma PTY LTD, priority 2008, dated 2015)
Structures can show the parent of a compound that is named as a salt.

Tests used:
S1P1 human receptor = S1P1 human receptor (Homo sapiens (Human), UniProt P21453); assay: S1P1 [35S]-GTPgamaS binding assay (agonist activity); assay type: biochemical; details: for EC50: GTPgamaS binding, agonist; for EC50S1P1/EC50S1P: potency at S1P1 relative to S1P; for Efficacy (% of maximum): S1P1, relative to reference agonist S1P
Sequence of S1P1 human receptor (P21453 whole entry): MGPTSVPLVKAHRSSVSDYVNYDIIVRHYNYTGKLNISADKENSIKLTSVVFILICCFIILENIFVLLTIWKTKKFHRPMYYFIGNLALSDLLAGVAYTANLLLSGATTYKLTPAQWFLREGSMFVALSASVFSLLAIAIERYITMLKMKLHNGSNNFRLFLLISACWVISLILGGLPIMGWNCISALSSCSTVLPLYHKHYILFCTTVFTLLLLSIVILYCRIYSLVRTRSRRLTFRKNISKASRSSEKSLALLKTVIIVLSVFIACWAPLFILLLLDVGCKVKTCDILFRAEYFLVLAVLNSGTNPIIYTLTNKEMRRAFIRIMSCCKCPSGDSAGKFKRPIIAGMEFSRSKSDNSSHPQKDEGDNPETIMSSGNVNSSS
Protocol: Selected Compounds of the Examples were evaluated at Millipore Corporation, USA, using S1P1 receptor; [^35S]-GTPgamaS binding assay. A [^35S]-GTPgamaS binding assay at Millipore was conducted by GPCR Profiler™ Custom Service Laboratory, Temecula, Calif., Millipore, Inc. to monitor dose-dependent agonist selectivity for selected Examples against the S1P1 receptors. The assay was completed with sample compounds subjected to an eight-point, four-fold dose response curve with starting concentration of 10 μM. Selectivity was determined upon initial addition of compounds followed by a 30 minute incubation at 30° C. Following compound incubation, bounded [^35S]-GTPgamaS was determined by filtration and scintillation counting.
Independently, selected compounds were evaluated for S1P1 and S1P3 agonistic activity. The S1P1 assay system was GTPgama-S35 binding in membranes from CHO K1 cells, expressing S1P1 human receptor. The S1P3 assay system was calcium mobilization in CHO K1 cells expressing S1P3 human receptor. […] Compounds were tested initially at a concentration of 10 μM.

[1] = tested on: Human promyelocytic leukemia (HL-60) cells; assay: Cell viability (growth inhibition) assay, MTS; assay type: cell-based; details: 50% reduction in cell viability of HL-60 cells, 48 hr incubation
Protocol: In order to measure the apoptotic effect of compounds on the metabolic activity of viable cells, the following assay was performed on Human promyelocytic leukemia cells. The assay utilises the tetrazolium compound (3-(4,5-dimethylthiazol-2-yl)-5-(3-carboxymethoxyphenyl)-2-(4-sulfophenyl)-2H-tetrazolium, inner salt; (MTS) and an electron coupling reagent (phenazine methosulfate; (PMS). MTS is bioreduced by cells into a formazan product the optical absorbance of which is measured directly from 96 well assay plates. The conversion of MTS into aqueous, soluble formazan is accomplished by dehydrogenase enzymes found in metabolically active cells. The quantity of formazan product as measured by the amount of 490 nm absorbance is directly proportional to the number of living cells in culture.
The assay was based on the National Cancer Institute (NCI) protocol, briefly, cells were grown in RPMI 1640 media supplemented with 10% FCS (foetal calf serum) and kept at 37° C. in a humidified environment with 5% CO2.
For the growth inhibition assay, Human promyelocytic leukemia (HL-60) cells were seeded at a density of 10,000 cells per well in 96 well plates in a volume of 100 μl and allowed to grow for 24 h. Compounds were serially diluted in DMSO at concentrations 100 fold higher than used in the assay (100×). Compounds were freshly prepared for each experiment. The 100× stocks were then diluted to 2× stocks into media and immediately, 100 μl of this 2× stock was added to the cells to create the desired final concentration of drug with a DMSO concentration of 1%. One row of each 96 well plate was treated with DMSO alone as a control. Cells were then incubated for a further 48 hr. Metabolic activity was determined using MTS (Promega) (90% 1.6 mg/ml MTS, 10% 1.6 mg/ml PMS (phenazine methosulfate) made fresh in PBS). 50 μl of this mix was added to all wells of the plates and allowed to incubate for 1.5-2 hr. Plates were shaken gently for about 15 min and absorbance was read on a plate reader at 490 nm. Averages were taken of the readings at each point with standard deviation and plotted using MicroCal Origin.

Compound	EC50 (S1P1 human receptor) [nM]	EC50S1P1/EC50S1P (S1P1 human receptor)	IC50 ([1]; Homo sapiens) [µM]	Efficacy (% of maximum) (S1P1 human receptor) [%]	IC50 [1] [µM]
CC(C)(C)OC(=O)NC(CO)(CO)CN1CCc2c(OCc3cc4c(Cl)cc(Cl)cc4o3)cccc21 [41(b), t-butyl 1-(4-((4,6-dichlorobenzofuran-2-yl)methoxy)indolin-1-yl)-3-hydroxy-2-(hydroxymethyl)propan-2-ylcarbamate]	> 29000	3066.24			
CCCCCCCCc1ccc(NCC(N)(CO)CO)cc1 [Example 1, 2-Amino-2-((4-octylphenylamino)methyl)propane-1,3-diol]	> 25000	>9259			
CCCCCCCCc1ccc2c(ccn2CC(N)(CO)CO)c1 [Example 4, 2-Amino-2-((5-octyl-1H-indol-1-yl)methyl)propane-1,3-diol]			3.58 ± 0.04		
CCCCCCCCc1ccc2c(c1)C(=O)C(=O)N2CC(N)(CO)CO [Example 5, 1-(2-Amino-3-hydroxy-2-(hydroxymethyl)propyl)-5-octylindoline-2,3-dione]			5.72 ± 2.18		
COc1cc(CCc2ccc3c(c2)CCN3CC(N)(CO)CO)cc(OC)c1OC [Example 6, 2-Amino-2-((5-(3,4,5-trimethoxyphenethyl)indolin-1-yl)methyl)propane-1,3-diol]			44.9 ± 8.85		
NC(CO)(CO)CCc1ccc(CCCn2cc(C(=O)C(F)(F)F)c3ccccc32)cc1 [Example 11, 1-(1-(3-(4-(3-amino-4-hydroxy-3-(hydroxymethyl)butyl)phenyl)propyl)-1H-indol-3-yl)-2,2,2-trifluoroethanone]			5.54 ± 2.3		
Cl.NC(CO)(CO)CCc1ccc(CCc2ccc(C(=O)c3ccc(F)cc3)cc2)cc1 [Example 12, (4-(4-(3-Amino-4-hydroxy-3-(hydroxymethyl)butyl)phenethyl)phenyl)(4-fluorophenyl)methanone hydrochloride salt]	1820	557		49	
COc1ccc2c(C(=O)c3cc(OC)c(OC)c(OC)c3)cn(S(=O)(=O)c3ccc(CCC(N)(CO)CO)cc3)c2c1 [Example 13, (1-(4-(3-Amino-4-hydroxy-3-(hydroxymethyl)butyl)phenylsulfonyl)-6-methoxy-1H-indol-3-yl)(3,4,5-trimethoxyphenyl)methanone]			0.44 ± 0.04		
Cc1ccc(-c2ccc(CCC(N)(CO)CO)cc2)cc1 [Example 18, 2-Amino-2-(2-(4′-methylbiphenyl-4-yl)ethyl)propane-1,3-diol]			7.07 ± 0.23		
COc1cc(CCc2cccc(CCC(N)(CO)CO)c2)cc(OC)c1OC [Example 21, 2-Amino-2-(3-(3,4,5-trimethoxyphenethyl)phenethyl)propane-1,3-diol]			28.5 ± 3.21		
NC(CO)(CO)CCc1ccc(O)c(C23CC4CC(CC(C4)C2)C3)c1 [Example 22, 2-Amino-2-(3-(admantyl)-4-hydroxyphenethyl)propane-1,3-diol hydrochloride salt]					10.5 ± 0.4
COc1ccc(CCc2ccc(CCC(N)(CO)CO)cc2)cc1C12CC3CC(CC(C3)C1)C2 [Example 26, 2-Amino-2-(4-(3-(1-admantanyl-4-methoxyphenethyl)phenethyl)propane-1,3-diol hydrochloride salt]					2.29 ± 0.57
CC(C)Oc1ccc(CCC(N)(CO)CO)cc1C12CC3CC(CC(C3)C1)C2 [Example 28, 2-Amino-2-(3-1-admantanyl-4-isopropoxyphenethyl)propane-1,3-diol hydrochloride salt]					1.56 ± 0.37
Cc1ccc(OCCCc2ccc(CCC(N)(CO)CO)cc2)c(C23CC4CC(CC(C4)C2)C3)c1 [Example 29, 2-Amino-2-(4-(3-(2-(1-admanynyl)-4-methylphenoxy)propyl)phenethyl) propane-1,3-diol hydrochloride salt]					3.94 ± 0.4
CCCCCCCCc1ccc(CNCC(N)(CO)CO)cc1 [Example 31, 2-Amino-2-((4-octylbenzylamino)methyl)propane-1,3-diol]			> 10		
NC(CO)(CO)CN1CCc2cc(OCc3cccc(F)c3)ccc2C1 [Example 37, 2-Amino-2-((6-(3-fluorobenzyloxy)-3,4-dihydroisoquinolin-2(1H)-yl)methyl)propane-1,3-diol]			26.9 ± 9.16		
NC(CO)(CO)CN1CCc2cc(OCc3ccc(-c4ccccc4C(F)(F)F)cc3)ccc2C1 [Example 39, 2-Amino-2-((6-((2′-(trifluoromethyl)biphenyl-4-yl)methoxy)-3,4-dihydroisoquinolin-2(1H)-yl)methyl)propane-1,3-diol]	> 3240	>1000		117	
CCCOc1ccc(-c2nc(-c3cccc4c3CCN4CC(N)(CO)CO)no2)cc1I [Example 44, 2-Amino-2-((4-(5-(3-iodo-4-propoxyphenyl)-1,2,4-oxadiazol-3-yl)indolin-1-yl)methyl)propane-1,3-diol]	48.1	18.24		60	
CCCOc1ccc(-c2nc(-c3cccc4c3CCN4CC(N)(CO)CO)no2)cc1N [Example 46, 2-Amino-2-((4-(5-(3-amino-4-propoxyphenyl)-1,2,4-oxadiazol-3-yl)indolin-1-yl)methyl)propane-1,3-diol]	88	10.61		94	
CCCc1ccc(-c2nc(-c3cccc4c3CCN4CC(N)(CO)CO)no2)cc1 [Example 48, 2-Amino-2-((4-(5-(4-propylphenyl)-1,2,4-oxadiazol-3-yl)indolin-1-yl)methyl)propane-1,3-diol]	6.7	0.14		78	
CC(C)Oc1ccc(-c2nc(-c3ccc4c(c3)CCN4CC(N)(CO)CO)no2)cc1Cl [Example 51, 2-Amino-2-((5-(5-(3-chloro-4-isopropoxyphenyl)-1,2,4-oxadiazol-3-yl)indolin-1-yl)methyl)propane-1,3-diol]	3.5	0.38		85	
CCCCOc1ccc(-c2nc(-c3ccc4c(c3)CCN4CC(N)(CO)CO)no2)cc1Cl [Example 52, 2-Amino-2-((5-(5-(4-butoxy-3-chlorophenyl)-1,2,4-oxadiazol-3-yl)indolin-1-yl)methyl)propane-1,3-diol]	34.5	3.55		62	
CCCCCOc1ccc(-c2nc(-c3ccc4c(c3)CCN4CC(N)(CO)CO)no2)cc1Cl [Example 54, 2-Amino-2-((5-(5-(3-chloro-4-(pentyloxy)phenyl)-1,2,4-oxadiazol-3-yl)indolin-1-yl)methyl)propane-1,3-diol]	43.8	5.93		73	
CCOc1ccc(-c2nc(-c3cccc4c3CCN4CC(N)(CO)CO)no2)cc1OC [Example 55, 2-Amino-2-((4-(5-(4-ethoxy-3-methoxyphenyl)-1,2,4-oxadiazol-3-yl)indolin-1-yl)methyl)propane-1,3-diol]	31.6	2.56		101	
CCCOc1ccc(-c2nc(-c3ccc4c(c3)CCN4CC(N)(CO)CO)no2)cc1Br [Example 56, 2-Amino-2-((5-(5-(3-bromo-4-propoxyphenyl)-1,2,4-oxadiazol-3-yl)indolin-1-yl)methyl)propane-1,3-diol]	2.9	0.29		79	
NC(CO)(CO)CN1CCc2cc(CCc3ccc(-c4ccccc4C(F)(F)F)cc3)ccc21 [Example 59, 2-Amino-2-((5-(2-(2′-(trifluoromethyl)biphenyl-4-yl)ethyl)indolin-1-yl)methyl)propane-1,3-diol]	> 2130	>1000			
CC(C)Oc1ccc(CCN(C)CC(N)(CO)CO)cc1C12CC3CC(CC(C3)C1)C2 [Example 60, 2-Amino-2-(((3-(1-admantyl)-4-isopropoxyphenethyl)(methyl)amino)methyl)propane-1,3-diol]					3.3 ± 0.26
CC(C)Oc1cc2c(cc1C13CC4CC(CC(C4)C1)C3)CN(CC(N)(CO)CO)CC2 [Example 61, 2-Amino-2-((7-(1-admantyl)-6-isopropoxy-3,4-dihydroisoquinolin-2(1H)-yl)methyl)propane-1,3-diol]					3.27 ± 0.12
